Reference: patent publication US8772274B1, “Anti-cancer compositions and methods” (The Penn State Research Foundation, priority 2008, dated 2014)
Counter-ions that a name gives are not always drawn. Like-named read-outs stand apart in the source and are kept apart here.

Assays:
UACC 903 melanoma cells [1] = assay: Cellular proliferation, BrdU ELISA; assay type: cell-based; conditions: 2 μM, 24 hours
Protocol: Cellular proliferation and apoptosis rates are measured by seeding 5×10^3 cells in 96-well plates, followed by treatment for 24 hours with PBISe or PBIT (0.5-10.5 μM). Proliferation and apoptosis rates are measured using a BrdU ELISA kit (Roche Applied Sciences, Indianapolis, Ind.) and Apo-ONE Homogenous caspase-3/7 Assay kit (Promega, Madison, Wis.), respectively, (Madhunapantula S V, et al., Cancer Res 2007; 67:3626-36).

UACC 903 melanoma cells [2] = assay: Cell cycle analysis (propidium iodide, FACScan); assay type: cell-based; conditions: 3.5 to 21 μM; 24 hours
Protocol: Cell cycle analysis is undertaken by growing 1.5×10^6 melanoma cells in 100-mm culture dishes followed by treatment with PBIT or PBISe (3.5 to 21 μM) for 24 hours. Cells are collected and stained using propidium iodide (100 μg/mL; Sigma, St Louis, Mo.), 20 μg/mL Ribonuclease A (Roche, Indianapolis, Ind.) 3 μg/mL Triton X-100 dissolved in 0.1% (W/V) sodium citrate for 30 minutes at 4° C. (Krishan, A., J Cell Biol 1975; 66:188-93). Stained cells are analyzed using the FACScan analyzer (Becton Dickinson, San Jose, Calif.) and data processed using ModFit LT software (Verity Software House, Topsham, Me.).

UACC 903 melanoma tumors = assay: Topical application on melanoma tumor growth in vivo; conditions: topical daily 0.0945 umoles (1.5 ppm selenium, 5.12 mg/kg); day 17 through day 29
Protocol: UACC 903 melanoma cells (0.25×10^5/site) are subcutaneously injected into left and right flanks of 4-6 weeks old female nude mice (n=4) and 24 h later PBIT, PBISe (0.0945 umoles, 1.5 ppm selenium equivalent to 5.12 mg/kg body weight) or vehicle control (acetone) is applied topically for 29 days. Sizes of developing tumors are measured and average sizes±S.E.M. (in mm^3) plotted. A minimum of 5 mice per group is used for the topical treatment.

[3] = tested on: normal human fibroblast cells (FF2441); assay: MTS cell viability assay, normal fibroblasts; assay type: cell-based; conditions: Homo sapiens, FF2441, read-out: Inhibition of growth IC50, Fibroblast cells (FF2441) (Table II)
Protocol: (§1) 5×10^3 cells per well in 100 μl DMEM-10% FBS are grown in a 96-well plate for 36 or 72 hours, respectively for melanoma (UACC 903, 1205 Lu and WM115) and human fibroblast (FF2441) cell lines and treated with either PBS vehicle or increasing concentrations (3.5-21 μM) of PBIT, PBISe, PEIT or PEISe for 24 hours. Cellular viability compared to control treated cells is measured using the MTS assay (Promega, Madison, Wis.). IC50 (μM) values for each compound in respective cell lines is determined from three independent experiments using GraphPad Prism version 4.01 (GraphPad, San Diego, Calif.), bars, SEM.
Viability of colon adenocarcinoma cells (Caco-2, HT 29, HCT 116, SW 480) and normal fibroblast cells (FF2441) treated with PBIT (1), PBISe (2), PEIT (3) or PEISe (4) is compared. The IC50 value is evaluated by treating with increasing concentrations of PBIT, PEIT, PEISe (10-100 μM) or PBISe (1.6-50 μM) for 24-72 hours and the number of viable cell are quantified using MTS (Promega, Wis.).

WM115 melanoma cell line = assay: MTS cell viability assay, WM115; conditions: for IC50: Homo sapiens, WM-115, 24 h
Protocol: as §1
Growth inhibitory effects on cultured cells from human vertical growth phase (VGP) melanoma cell line WM115, Lung adenocarcinoma (A549), fibrosarcoma (HT-1080), prostate adenocarcinoma (PC-3), ovarian carcinoma (OVCAR-3), and breast adenocarcinoma (MDA-MB-231) are plated in 96 well plates at a density of 5×10^3 cells/well in 100 μl media. The cells are treated 36 hours later with PBISe (0.19-100 μM), PBIT (10-100 μM), PEIT 10-100 μM), or PEISe (10-100 μM) for 24 h and cell viability measured using MTS assay. Dose response curves for each compound are generated and the IC50 values (μM) determined using GraphPad Prism software. Each experiment is replicated at least 3 times and the average IC50 (μM) values with standard error represented.

[4] = tested on: HT-1080 fibrosarcoma cells; assay: MTS cell viability assay, HT-1080; assay type: cell-based, human
Protocol: (§2) Growth inhibitory effects on cultured cells from human vertical growth phase (VGP) melanoma cell line WM115, Lung adenocarcinoma (A549), fibrosarcoma (HT-1080), prostate adenocarcinoma (PC-3), ovarian carcinoma (OVCAR-3), and breast adenocarcinoma (MDA-MB-231) are plated in 96 well plates at a density of 5×10^3 cells/well in 100 μl media. […] Dose response curves for each compound are generated and the IC50 values (μM) determined using GraphPad Prism software. Each experiment is replicated at least 3 times and the average IC50 (μM) values with standard error represented.

[5] = tested on: PC-3 prostate adenocarcinoma cells; assay: MTS cell viability assay, PC-3; assay type: cell-based, human
Protocol: as §2

[6] = tested on: HCT-116 colorectal adenocarcinoma cells; assay: MTS cell viability assay, HCT-116; assay type: cell-based; conditions: Homo sapiens; HCT-116; 24-72 hours; MTS; read-out: Inhibition of growth IC50, HCT-116 (Table II)
[7] = tested on: Caco-2 colon adenocarcinoma cells; assay: MTS cell viability assay, Caco-2
Protocol: In vitro inhibitory efficacy is measured using 3-(4,5-dimethylthiazol-2-yl)-5-(3-carboxymethoxyphenyl)-2-(4-sulfophenyl)-2H-tetrazolium (MTS) assay (Promega, Madison, Wis.). […] Cells are treated with either vehicle control, PBS, PBIT (40-120 μM) or PBISe (2.4-10 μM) for 72 h. The percentages of viable cells compared to control PBS treated cells are determined using MTS assay and IC50 values calculated using GraphPad Prism version 4.01 (GraphPad software, San Diego, Calif.). An IC50 value for each compound is determined by at least three independent experiments and represented with a standard error.
(§3) The IC50 value is evaluated by treating with increasing concentrations of PBIT, PEIT, PEISe (10-100 μM) or PBISe (1.6-50 μM) for 24-72 hours and the number of viable cell are quantified using MTS (Promega, Wis.).

[8] = tested on: PI3 kinase/Akt3 and MAP kinase signaling in UACC 903 cells; assay: Western blot analysis of melanoma cell lysates; assay type: cell-based
Protocol: Melanoma cell line UACC 903 cells (1×10^6) are treated with increasing concentrations (7-21 μM) of PBIT and PBISe for 24 hours and cell lysates examined by Western blot analysis Cell lysates are harvested by addition of lysis buffer containing 50 mM HEPES (pH 7.5), 150 mM NaCl, 10 mM EDTA, 10% glycerol, 1% Triton X-100, 1 mM sodium orthovanadate, 0.1 mM sodium molybdate, 1 mM phenylmethylsulfonyl fluoride, 20 μg/ml aprotinin, and 5 μg/ml leupeptin. Whole cell lysates are centrifuged (≧10,000×g) for 10 minutes at 4° C. to remove cell debris. Protein concentrations are quantitated using the BCA assay (Pierce, Rockford, Ill.), and 30 μg of lysate loaded per lane onto NuPAGE Gels (Life Technologies, Carlsbad, Calif.). Following electrophoresis, samples are transferred to polyvinylidene difluoride membrane (Pall Corporation, Pensacola, Fla.). Blots are probed with antibodies to PRAS40 and phosphorylated PRAS40 (Thr246) (Invitrogen, Carlsbad, Calif.); antibodies to iNOS, cyclin D1, p27, p21, Erk2, α-enolase and secondary antibodies conjugated with horseradish peroxidase from Santa Cruz Biotechnology (Santa Cruz, Calif.); and antibodies to Akt3, phosphorylated-Akt (Ser473), phosphorylated-Erk 1/2 (Thr202/Tyr204), caspase-3 and cleaved PARP from Cell Signaling Technology (Danvers, Mass.). Immunoblots are developed using ECL (Pierce, Rockford, Ill.).

[9] = tested on: A549 lung adenocarcinoma cells; assay: MTS cell viability assay, A549; assay type: cell-based, human
Protocol: as §2

[10] = tested on: colon adenocarcinoma cells (Caco-2, HT 29, HCT 116, SW 480); assay: MTS viability, four colon cancer cell lines (summary); assay type: cell-based
Protocol: as §3

[11] = Toxicity of topical application in vivo
Protocol: Blood collected from the control and experimental animals, at the end of treatment (day 29), are analyzed for SGOT, SGPT (representing liver and cardiac toxicity) and alkaline phosphatase (for kidney and cardiac toxicity). Additionally, concentrations of metabolites (glucose, creatinine, urea nitrogen and total protein) in serum are also determined.

[12] = tested on: MDA-MB-231 breast adenocarcinoma cells; assay: MTS cell viability assay, MDA-MB-231; assay type: cell-based, human
Protocol: as §2

[13] = tested on: HT-29 colorectal adenocarcinoma cells; assay: MTS cell viability assay, HT-29; assay type: cell-based; conditions: Homo sapiens; HT-29; 24-72 hours; MTS; read-out: Inhibition of growth IC50, HT-29 (Table II)
[14] = UACC 903, 7-21 μM, 24 hours, compared to PBIT

N=C(N)[Se]CCc1ccc(CC[Se]C(=N)N)cc1 [PBISe, s,s′-1,4-phenylene-bis(1,2-ethanediyl)bis-isoselenourea dihydrobromide]
reduction of cellular proliferative capacity compared to PBS vehicle or PBIT treated cells (UACC 903 melanoma cells [1]): ~90%
increase in G2/M cells (UACC 903 melanoma cells [2]): ~3 fold
sub G0/G1 population (UACC 903 melanoma cells [2]): increased
decrease in tumor volume versus vehicle acetone or PBIT treated mice (UACC 903 melanoma tumors): 50%
IC50 [3]: 17.1 ± 0.59 µM
IC50 (WM115 melanoma cell line; read-out: IC50, WM115 (Table I)): 9.7 ± 1.4 µM
IC50 (WM115 melanoma cell line; read-out: Inhibition Cancer Cells IC50, WM115 (Table III)): 9.7 ± 1.4 µM
Fold increase in efficacy (PBIT/PBISe), WM115 (WM115 melanoma cell line; ratio of IC50 PBIT/PBISe, WM115): >10 fold
IC50 ([4]; Homo sapiens, HT-1080, 24 h, read-out: Inhibition Cancer Cells IC50, HT-1080 (Table III)): 3.2 ± 0.61 µM
Fold increase in efficacy (PBIT/PBISe), HT-1080 ([4]; ratio of IC50 PBIT/PBISe, HT-1080): >31.2 fold
IC50 ([5]; Homo sapiens, 24 h, read-out: Inhibition Cancer Cells IC50, PC-3 (Table III)): 6.6 ± 0.95 µM
Fold increase in efficacy (PBIT/PBISe), PC-3 ([5]; ratio of IC50 PBIT/PBISe, PC-3): >15.2 fold
IC50 [6]: 4.72 ± 0.44 µM
increase in potency compared to PBIT ([7]; Caco-2, 72 h, MTS): 25 fold
cells killed ([7]; Caco-2, PBISe at 2-4 μM): > 80%
Fold increase in efficacy (PBIT/PBISe), Caco-2 ([7]; ratio of IC50 PBIT/PBISe, Caco-2): ~24.7 fold
IC50 ([7]; read-out: IC50, Caco-2 colon adenocarcinoma cells, Caco-2, 72 h, MTS): 2.4 µM
IC50 ([7]; read-out: Inhibition Cancer Cells IC50, Caco-2 (Table III), Caco-2 colorectal adenocarcinoma, MTS): 2.4 ± 0.43 µM
IC50 ([7]; read-out: Inhibition of growth IC50, Caco-2 (Table II), Caco-2, 24-72 hours, MTS): 2.4 ± 0.43 µM
cleaved caspase-3 and PARP ([8]; UACC 903, 7-21 μM, 24 hours): increases
phosphorylation of downstream Akt3 substrate PRAS40 ([8]; UACC 903, 7-21 μM, 24 hours): inhibited
Akt phosphorylation [8, 14]: inhibits
total Akt protein levels [8, 14]: decreases
cyclin D1 levels ([8]; melanoma cells, FIG. 4C): reduces
p27 as well as p21 levels ([8]; three cell lines, FIG. 4C): increases
IC50 ([9]; Homo sapiens, A549, 24 h, read-out: Inhibition Cancer Cells IC50, A549 (Table III)): 4.2 ± 0.58 µM
Fold increase in efficacy (PBIT/PBISe), A549 ([9]; ratio of IC50 PBIT/PBISe, A549): >23.8 fold
fold more sensitive, colon adenocarcinoma cells than normal cells ([10]; colon lines vs FF2441): 2-7 fold
IC50 ([10]; read-out: IC50 range, four colon cancer cell lines): 2.4 to 5.55 µM
serum enzyme and metabolite levels, topical application ([11]; day 29, SGOT, SGPT, alkaline phosphatase, glucose, creatinine, urea nitrogen, total protein): no significant differences
body weight, topical application ([11]; topical every day, 29 days): no detectable differences
IC50 ([12]; Homo sapiens, MDA-MB-231, 24 h, read-out: Inhibition Cancer Cells IC50, MDA-MB-231 (Table III)): 6 ± 0.54 µM
Fold increase in efficacy (PBIT/PBISe), MDA-MB-231 ([12]; ratio of IC50 PBIT/PBISe, MDA-MB-231): >16.7 fold
IC50 [13]: 3.84 ± 0.44 µM
